Assay results as given in article PMC9653409, “Generative deep learning enables the discovery of a potent and selective RIPK1 inhibitor” (Nature Communications, 2022).

How the values were obtained:
RIPK1 [1] = target: T1, RIPK1 (Homo sapiens, UniProt Q13546); settings: cited from earlier work
T1 sequence (Q13546 1-671): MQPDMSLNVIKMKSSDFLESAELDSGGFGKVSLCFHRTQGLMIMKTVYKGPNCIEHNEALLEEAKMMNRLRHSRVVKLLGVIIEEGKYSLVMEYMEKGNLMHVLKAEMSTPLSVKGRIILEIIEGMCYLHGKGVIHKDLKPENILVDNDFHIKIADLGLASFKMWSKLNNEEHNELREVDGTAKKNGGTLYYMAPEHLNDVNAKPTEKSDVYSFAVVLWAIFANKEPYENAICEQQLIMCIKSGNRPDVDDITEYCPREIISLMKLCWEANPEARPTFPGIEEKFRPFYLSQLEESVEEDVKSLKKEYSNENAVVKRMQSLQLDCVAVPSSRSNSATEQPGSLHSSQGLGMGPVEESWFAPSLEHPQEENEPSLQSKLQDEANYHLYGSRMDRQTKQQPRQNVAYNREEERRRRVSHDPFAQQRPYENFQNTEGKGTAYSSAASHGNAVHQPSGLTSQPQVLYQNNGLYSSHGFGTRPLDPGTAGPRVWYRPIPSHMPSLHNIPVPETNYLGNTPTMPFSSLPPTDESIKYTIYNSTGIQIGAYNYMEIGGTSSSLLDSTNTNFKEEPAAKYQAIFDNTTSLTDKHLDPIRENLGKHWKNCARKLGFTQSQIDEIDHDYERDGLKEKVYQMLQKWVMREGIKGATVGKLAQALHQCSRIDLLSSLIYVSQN

[2] = Cytotoxicity at high concentration; type: cell-based; settings: 3-10 μM
RIPK1 [3] = target: T1, RIPK1; assay: RIPK1 kinase assay, 33P-labeled ATP assay at Eurofins; type: biochemical; settings: read-out: RIPK1 IC50
Experimental: In vitro kinase activity assays were conducted through the Kinase Profiling Services provided by Eurofins (Eurofins, France). The protocol for the RIPK1 assay is briefly described as follows (Protocols for other kinases are very similar and can be found in http://www.eurofins.com/pharmadiscovery). RIPK1 kinase was incubated with the test compound in assay buffer containing 8 mM MOPS (pH 7.0), 0.2 mM EDTA, 250 μM […], 10 mM magnesium acetate, and 10 μM [γ-33P]-ATP for 15 min at room temperature. The reaction was initiated by the addition of the Mg/ATP mixture. After incubation for 40 min at room temperature, and the reaction was stopped by the addition of 3% phosphoric acid. A 10 μL portion of the reaction mixture was then spotted onto a P30 filter mat and washed four times for 4 min in 0.425% phosphoric acid and once in methanol prior to drying and scintillation counting.

HT29 cells = assay: TSZ-induced HT29 cell necroptosis model (CCK8); type: cell-based; settings: Homo sapiens, HT-29; TSZ-induced necroptosis; read-out: HT29 EC50
Experimental: Cell necroptosis protection assays were performed in 96-well cell culture plates. Cells were plated in each well and cultured at 37 °C overnight. […] The cell survival rate was determined using a CCK8 cell viability assay kit and CLARIOstar (v5.61). […] All experiments were performed at least two times, and each EC50 value was expressed as mean ± standard deviation (SD).

| SMILES | IC50 (RIPK1 [3]) [nM] | potency against RIPK1 (RIPK1 [1]) [nM] | cytotoxicity [2] | EC50 (HT29 cells) [nM] |
| --- | --- | --- | --- | --- |
| CN1C(=O)NC(Cc2c[nH]c3c(Cl)cccc23)C1=O (centres unmarked) [Nec-1a] |  | 317 |  |  |
| CC(=O)Nc1cn2cc(-c3ccc(CNC(=O)c4cc(F)ccc4OCC4CCCC4)nc3)ccc2n1 [RI-985] | > 10000 |  |  | > 30000 |
| CC(NC(=O)c1cn(C)c2ccc(-c3ccn4nc(NC(=O)C5CC5)cc4n3)cc12)c1ccc(F)cc1 (centres unmarked) [RI-1155] | 49 |  | some cytotoxicity at high concentration (3-10 μM) | 40 |

More lines, main results first:

| IC50 (RIPK1 [3]) [nM] | SMILES | potency against RIPK1 (RIPK1 [1]) [nM] | cytotoxicity [2] | EC50 (HT29 cells) [nM] |
| --- | --- | --- | --- | --- |
| 65 | CC(NC(=O)c1cn(C)c2ccc(-c3ccn4nc(NC(=O)C5CC5)cc4n3)cc12)c1ccccc1 (centres unmarked) [RI-056] |  | some cytotoxicity at high concentration (3-10 μM) | 49 |
| > 10000 | CNC(=O)c1n[nH]c2cc(-c3ccc(C(=O)NCc4ccc(OCCC5CC5)cc4)nc3)ccc12 [RI-413] |  |  | > 30000 |
| > 10000 | CC(NCC(=O)Nc1cccc(-c2cc(C(=O)NCc3cccc(F)c3)n(C)c2)n1)c1ccccc1F (centres unmarked) [RI-470, N-(3-fluorobenzyl)-4-(6-(2-((1-(2-fluorophenyl)ethyl)amino)acetamido)pyridin-2-yl)-1-methyl-1H-pyrrole-2-carboxamide] |  |  | > 100000 |
| > 10000 | Cc1cc(Oc2ccc(F)c(C(=O)NCc3ccc(F)cc3)n2)cc(C(=O)NCc2ccc(Br)s2)c1 [RI-539] |  |  | > 30000 |
| 463 | CCOc1ccccc1CNCC(=O)c1cn2ccc(-c3ccn4nc(NC(=O)C(C)C)nc4c3)cc2n1 [RI-753, N-(7-(2-((2-ethoxybenzyl)glycyl)imidazo[1,2-a]pyridin-7-yl)-[1,2,4]triazolo[1,5-a]pyridin-2-yl)isobutyramide] |  |  | 64 |
